In patent US20240287172A1, “PROTEIN BINDERS TO IRHOM2 EPITOPES” (SCIRHOM GMBH, priority 2019, published 2024) one finds inhibition data, which are given here for one compound.

Experiment [1] concerns PMA-induced release of endogenous IL-6R from PBMCs from patients suffering from rheumatoid arthritis. Kind of experiment: ELISA-based IL-6R release assay, PMA-induced, PBMCs from RA-patients. Format: cell-based. Conditions: Homo sapiens, PBMC; PMA 25 ng/ml, 24 hours; chimeric antibodies (CHO) and IgG at 1 μg/ml; Batimastat at 10 μM. As to the method: In brief, on day 1, Nunc black MaxiSorp® 96-well plates (Thermo Fisher Scientific, USA) were coated overnight with 100 μl per well of mouse anti-human IL-6R capture antibody (provided as part of the DuoSet ELISA kit) at 4 μg/ml TBS at 4° C. Meanwhile, 40,000 PBMC from patients suffering from rheumatoid arthritis (STEMCELL Technologies, Canada) cells in 80 μl of normal growth medium were seeded in each well of Greiner CELLSTAR V-bottom 96-well plates (Thermo Fisher Scientific, USA) and pre-incubated with 20 μl per well of standard growth medium supplemented with Batimastat (BB94, Abcam, UK) at 50 μM as positive control (for a final concentration of 10 μM in the resulting 100 μl sample volume), mouse IgG antibody (Thermo Fisher Scientific, USA) at 5 μg/ml as isotype control (for a final concentration of 1 μg/ml in the resulting 100 μl sample volume) or antibodies of the invention at 5 μg/ml (for a final concentration of 1 μg/ml in the resulting 100 μl sample volume) at 37° C., 5% CO2 for 30 minutes. In case of stimulation controls, 20 μl of standard growth medium without test articles were added. […] Using an infinite M1000 (Tecan Group, Switzerland) microplate reader, the fluorescence of each well was collected at an excitation wavelength of 435 nm and an emission wavelength of 555 nm.

Experiment [2] relates to PMA-induced release of endogenous IL-6R from PBMCs from healthy donors. Kind of experiment: ELISA-based IL-6R release assay, PMA-induced, PBMCs from healthy donors. Format: cell-based. The note with it: Homo sapiens, PBMC; PMA 25 ng/ml, 6 hours; recombinant murine antibodies and IgG at 1 μg/ml; Batimastat at 10 μM. The method, then:
In brief, on day 1, Nunc black MaxiSorp® 96-well plates (Thermo Fisher Scientific, USA) were coated overnight with 100 μl per well of mouse anti-human IL-6R capture antibody (provided as part of the DuoSet ELISA kit) at 4 μg/ml TBS at 4° C. On day 2, the capture antibody solution was removed and MaxiSorp® plates were blocked with 300 μl per well of TBS, 1% BSA at room temperature for 3 hours. Meanwhile, 40,000 PBMC from healthy donors (STEMCELL Technologies, Canada) cells in 80 μl of normal growth medium were seeded in each well of Greiner CELLSTAR V-bottom 96-well plates (Thermo Fisher Scientific, USA) and pre-incubated with 20 μl per well of standard growth medium supplemented with Batimastat (BB94, Abcam, UK) at 50 μM as positive control (for a final concentration of 10 μM in the resulting 100 μl sample volume), mouse IgG antibody (Thermo Fisher Scientific, USA) at 5 μg/ml as isotype control (for a final concentration of 1 μg/ml in the resulting 100 μl sample volume) or antibodies of the invention at 5 μg/ml (for a final concentration of 1 μg/ml in the resulting 100 μl sample volume) at 37° C., 5% CO2 for 30 minutes. […] Using an infinite M1000 (Tecan Group, Switzerland) microplate reader, the fluorescence of each well was collected at an excitation wavelength of 435 nm and an emission wavelength of 555 nm.

Structures are written as SMILES.

Take `CNC(=O)[C@H](Cc1ccccc1)NC(=O)[C@H](CC(C)C)[C@H](CSc1cccs1)C(=O)NO` [Batimastat]: the inhibition at 10 µM in experiment [1] worked out at 104%; in experiment [2] it was 114%.
